For two molecules, Normal melting temperature results are on record in the NIST ThermoML archive (doi:10.1021/acs.jced.5b00098).

The conditions of the series: Crystal; visual observation.

± gives the expanded uncertainty stated by the source.

For `COc1cc2oc(=O)cc(-c3ccccc3)c2cc1O` [6-hydroxy-7-methoxy-4-phenylcoumarin], the Normal melting temperature was 211.50 ± 0.5 °C.
Next, `O=c1cc(-c2ccccc2)c2cc(O)c(O)cc2o1` [6,7-dihydroxy-4-phenylcoumarin]: 269.50 ± 0.5 °C.
